Laboratory results reported in PubChem BioAssay AID328 (DTP/NCI, 2004).
Where “and” joins values, the source holds several entries; their conditions need not be identical. Equal values may be shown once. Inconclusive results and toxic doses are left out. Residues, ends and D or L forms follow the SMILES beside them. *: point of attachment. Trt = c1ccc(C(c2ccccc2)(c2ccccc2)*)cc1

System: BDF1 mice, P388 leukemia ip, median survival T/C
Experiment: NCI In Vivo Anticancer Drug Screen. Data for tumor model P388 Leukemia (intraperitoneal) in B6D2F1 (BDF1) mice
Settings: endpoint: median survival time, higher = longer survival
Method in brief: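 In tumour-bearing mice, survival after compound treatment is set against the vehicle group and given as a quotient.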

[1] = dose: 50.0 mg/kg/injection, schedule: Q01DX009 (ip), vehicle: saline with Tween-80
[2] = dose: 100.0 mg/kg/injection, schedule: Q01DX009 (ip), vehicle: saline with Tween-80
[3] = dose: 100.0 mg/kg/injection, schedule: Q04DX003 (ip), vehicle: saline with Tween-80
[4] = dose: 200.0 mg/kg/injection, schedule: Q01DX009 (ip), vehicle: saline with Tween-80
[5] = dose: 200.0 mg/kg/injection, schedule: Q04DX003 (ip), vehicle: saline with Tween-80
[6] = dose: 400.0 mg/kg/injection, schedule: Q04DX003 (ip), vehicle: saline with Tween-80
[7] = dose: 6.25 mg/kg/injection, schedule: Q01DX009 (ip), vehicle: saline
[8] = dose: 12.5 mg/kg/injection, schedule: Q01DX009 (ip), vehicle: saline
[9] = dose: 25.0 mg/kg/injection, schedule: Q01DX009 (ip), vehicle: saline
[10] = dose: 50.0 mg/kg/injection, schedule: Q01DX009 (ip), vehicle: saline
[11] = dose: 50.0 mg/kg/injection, schedule: Q04DX003 (ip), vehicle: saline
[12] = dose: 100.0 mg/kg/injection, schedule: Q04DX003 (ip), vehicle: saline
[13] = dose: 100.0 mg/kg/injection, schedule: Q04DX003 (sc), vehicle: olive oil, sesame oil, peanut oil
[14] = dose: 200.0 mg/kg/injection, schedule: Q04DX003 (sc), vehicle: olive oil, sesame oil, peanut oil
[15] = dose: 6.25 mg/kg/injection, schedule: Q01DX009 (ip), vehicle: Klucel (hydroxypropylcellulose) (HPC)
[16] = dose: 12.5 mg/kg/injection, schedule: Q01DX009 (ip), vehicle: Klucel (hydroxypropylcellulose) (HPC)
[17] = dose: 25.0 mg/kg/injection, schedule: Q01DX009 (ip), vehicle: Klucel (hydroxypropylcellulose) (HPC)
[18] = dose: 50.0 mg/kg/injection, schedule: Q01DX009 (ip), vehicle: Klucel (hydroxypropylcellulose) (HPC)
[19] = dose: 100.0 mg/kg/injection, schedule: Q01DX009 (ip), vehicle: saline
[20] = dose: 50.0 mg/kg/injection, schedule: Q04DX003 (ip), vehicle: saline with Tween-80

## Cc1ccc(S(=O)(=O)c2ccc(Sc3cccc[n+]3[O-])c3no[n+]([O-])c23)cc1
dose: 15.0 mg/kg/injection, schedule: Q01DX009 (ip), vehicle: saline with Tween-80
  T/C: 97 % of control
dose: 30.0 mg/kg/injection, schedule: Q01DX009 (ip), vehicle: saline with Tween-80
  T/C: 114 % of control
dose: 60.0 mg/kg/injection, schedule: Q01DX009 (ip), vehicle: saline with Tween-80
  T/C: 90 % of control

## Cc1cc(=O)[nH]c2c1ccc1[nH]c(=O)cc(C)c12
dose: 100.0 mg/kg/injection, schedule: Q01DX001 (ip), vehicle: Klucel (hydroxypropylcellulose) (HPC)
  T/C: 91 % of control
dose: 200.0 mg/kg/injection, schedule: Q01DX001 (ip), vehicle: Klucel (hydroxypropylcellulose) (HPC)
  T/C: 87 % of control

## c1ccc(Nc2n[n+](-c3ccccc3)no2)cc1
dose: 25.0 mg/kg/injection, schedule: Q01DX009 (ip), vehicle: saline with Tween-80
  T/C: 105 % of control
[1]
  T/C: 101 % of control
[2]
  T/C: 101 % of control and 104 % of control
[3]
  T/C: 107 % of control
[4]
  T/C: 88 % of control
[5]
  T/C: 106 % of control
[6]
  T/C: 102 % of control

## [Cr+6].[NH2-].[NH2-].[NH2-].[NH2-].[NH2-].[NH2-]
dose: 4.1 mg/kg/injection, schedule: Q04DX003 (ip), vehicle: saline
  T/C: 116 % of control
dose: 5.4 mg/kg/injection, schedule: Q04DX003 (ip), vehicle: saline
  T/C: 109 % of control
[7]
  T/C: 120 % of control
dose: 8.2 mg/kg/injection, schedule: Q01DX009 (ip), vehicle: saline
  T/C: 122 % of control
dose: 8.2 mg/kg/injection, schedule: Q04DX003 (ip), vehicle: saline
  T/C: 109 % of control
dose: 25.0 mg/kg/injection, schedule: Q01DX001 (ip), vehicle: saline
  T/C: 112 % of control
dose: 50.0 mg/kg/injection, schedule: Q01DX001 (ip), vehicle: saline
  T/C: 112 % of control

## Nc1ccn(CC(=O)c2ccco2)c(=O)n1
[7]
  T/C: 109 % of control
[8]
  T/C: 95 % of control
[9]
  T/C: 95 % of control and 109 % of control
[10]
  T/C: 86 % of control
[11]
  T/C: 105 % of control
[12]
  T/C: 105 % of control

## CN(CCC#N)C1=CCCC1
[11]
  T/C: 100 % of control
[12]
  T/C: 100 % of control
dose: 200.0 mg/kg/injection, schedule: Q04DX003 (ip), vehicle: saline
  T/C: 100 % of control

## CC1(C)NC(=O)NC1=O
dose: 100.0 mg/kg/injection, schedule: Q01DX001 (ip), vehicle: saline with Tween-80
  T/C: 100 % of control
dose: 200.0 mg/kg/injection, schedule: Q01DX001 (ip), vehicle: saline with Tween-80
  T/C: 100 % of control
dose: 400.0 mg/kg/injection, schedule: Q01DX001 (ip), vehicle: saline with Tween-80
  T/C: 100 % of control

## CNc1cc(C(C)C)ccc1C
dose: 32.5 mg/kg/injection, schedule: Q01DX009 (sc), vehicle: olive oil, sesame oil, peanut oil
  T/C: 104 % of control
dose: 65.0 mg/kg/injection, schedule: Q01DX009 (sc), vehicle: olive oil, sesame oil, peanut oil
  T/C: 104 % of control
[13]
  T/C: 104 % of control
dose: 130.0 mg/kg/injection, schedule: Q01DX009 (sc), vehicle: olive oil, sesame oil, peanut oil
  T/C: 100 % of control
[14]
  T/C: 109 % of control
dose: 400.0 mg/kg/injection, schedule: Q04DX003 (sc), vehicle: olive oil, sesame oil, peanut oil
  T/C: 118 % of control

## Sc1ccc(Nc2c3ccccc3nc3ccccc23)cc1
[1]
  T/C: 102 % of control and 108 % of control
[2]
  T/C: 100 % of control and 118 % of control

## CC1(C)O[C@@H]2C[C@H]3[C@@H]4CCC5=CC(=O)CC[C@]5(C)[C@@]4(F)[C@@H](O)C[C@]3(C)[C@]2(C(=O)CO)O1
[3]
  T/C: 108 % of control
[5]
  T/C: 108 % of control
[6]
  T/C: 100 % of control

## c1ccc2c(c1)C1c3cccc[n+]3C2CC1n1c2ccccc2c2ccccc21 (configuration not stated)
[15]
  T/C: 100 % of control
[16]
  T/C: 100 % of control and 108 % of control
dose: 16.0 mg/kg/injection, schedule: Q01DX009 (ip), vehicle: Klucel (hydroxypropylcellulose) (HPC)
  T/C: 100 % of control
[17]
  T/C: 87 % of control and 113 % of control
[18]
  T/C: 91 % of control
dose: 100.0 mg/kg/injection, schedule: Q01DX009 (ip), vehicle: Klucel (hydroxypropylcellulose) (HPC)
  T/C: 100 % of control

## CN(C)CCCOC(=O)CC(C)(C)C
dose: 50.0 mg/kg/injection, schedule: Q01DX005 (ip), vehicle: water
  T/C: 91 % of control
dose: 100.0 mg/kg/injection, schedule: Q01DX005 (ip), vehicle: water
  T/C: 94 % of control

## O=C(Nc1ccc(Cl)cc1)P(=O)(O)c1ccccc1
[7]
  T/C: 98 % of control
[8]
  T/C: 104 % of control
[9]
  T/C: 98 % of control
[10]
  T/C: 99 % of control
[19]
  T/C: 100 % of control and 102 % of control

## COC(=O)C(NC(=O)C(N)CSC(c1ccccc1)(c1ccccc1)c1ccccc1)C(C)C (configuration not stated) (H-Cys(Trt)-Val-OMe; configuration not given here)
dose: 50.0 mg/kg/injection, schedule: Q01DX009 (sc), vehicle: olive oil, sesame oil, peanut oil
  T/C: 117 % of control
dose: 50.0 mg/kg/injection, schedule: Q04DX003 (sc), vehicle: olive oil, sesame oil, peanut oil
  T/C: 90 % of control
dose: 100.0 mg/kg/injection, schedule: Q01DX009 (sc), vehicle: olive oil, sesame oil, peanut oil
  T/C: 104 % of control
[13]
  T/C: 90 % of control
dose: 200.0 mg/kg/injection, schedule: Q01DX009 (sc), vehicle: olive oil, sesame oil, peanut oil
  T/C: 104 % of control
[14]
  T/C: 100 % of control

## CC(C)CC(Br)C(=O)NCC(=O)NC(Cc1ccccc1)C(=O)O (configuration not stated)
[20]
  T/C: 95 % of control
[3]
  T/C: 100 % of control
[5]
  T/C: 95 % of control

## O=S(=O)(C=C(N1CCCCC1)N1CCCCC1)Cc1ccccc1
dose: 8.75 mg/kg/injection, schedule: Q01DX009 (ip), vehicle: saline
  T/C: 105 % of control
dose: 17.5 mg/kg/injection, schedule: Q01DX009 (ip), vehicle: saline
  T/C: 115 % of control
dose: 26.25 mg/kg/injection, schedule: Q04DX003 (ip), vehicle: saline
  T/C: 108 % of control
dose: 35.0 mg/kg/injection, schedule: Q01DX009 (ip), vehicle: saline
  T/C: 105 % of control
dose: 52.5 mg/kg/injection, schedule: Q04DX003 (ip), vehicle: saline
  T/C: 104 % of control

## CCSC1(SCC)C(=O)OC2=C(CCCC2)C1N1CCOCC1 (configuration not stated)
[1]
  T/C: 99 % of control
[2]
  T/C: 99 % of control
[4]
  T/C: 94 % of control

## CC(=O)c1ccc(NC(=O)C(F)(F)F)cc1
[20]
  T/C: 111 % of control
[3]
  T/C: 96 % of control
[5]
  T/C: 103 % of control
[6]
  T/C: 103 % of control

## COc1cc(OC)c2c[n+](C)c3c4cc(OC)c(OC)cc4ccc3c2c1
[15]
  T/C: 154 % of control
[16]
  T/C: 154 % of control and 169 % of control
[17]
  T/C: 170 % of control and 172 % of control
[18]
  T/C: 155 % of control and 180 % of control

## Cc1ccc(S[Si](Sc2ccc(C)cc2)(Sc2ccc(C)cc2)Sc2ccc(C)cc2)cc1
dose: 200.0 mg/kg/injection, schedule: Q04DX002 (ip), vehicle: saline with Tween-80
  T/C: 92 % of control
dose: 400.0 mg/kg/injection, schedule: Q04DX002 (ip), vehicle: saline with Tween-80
  T/C: 100 % of control

## COC(=O)/C=C1/C(=O)N(C)c2ccccc21
[1]
  T/C: 122 % of control
[2]
  T/C: 98 % of control
[4]
  T/C: 104 % of control

## c1cc[n+](CCSCCSCC[n+]2ccccc2)cc1
dose: 1.56 mg/kg/injection, schedule: Q01DX009 (ip), vehicle: saline
  T/C: 120 % of control
dose: 2.3 mg/kg/injection, schedule: Q04DX003 (ip), vehicle: saline
  T/C: 122 % of control
dose: 3.0 mg/kg/injection, schedule: Q04DX003 (ip), vehicle: saline
  T/C: 104 % of control and 113 % of control
dose: 3.12 mg/kg/injection, schedule: Q01DX009 (ip), vehicle: saline
  T/C: 105 % of control
dose: 4.6 mg/kg/injection, schedule: Q04DX003 (ip), vehicle: saline
  T/C: 100 % of control and 109 % of control
[7]
  T/C: 105 % of control
dose: 6.9 mg/kg/injection, schedule: Q04DX003 (ip), vehicle: saline
  T/C: 109 % of control
dose: 9.2 mg/kg/injection, schedule: Q01DX009 (ip), vehicle: saline
  T/C: 88 % of control
dose: 9.2 mg/kg/injection, schedule: Q04DX003 (ip), vehicle: saline
  T/C: 100 % of control
dose: 13.0 mg/kg/injection, schedule: Q04DX003 (ip), vehicle: saline
  T/C: 100 % of control

## C=CCC(CC)(C(=O)O)C(=O)O
[10]
  T/C: 100 % of control
[19]
  T/C: 90 % of control
